The values below come from patent US20110263588A1, “TRICYCLIC COMPOUNDS AS GLUTAMATE RECEPTOR MODULATORS” (GLAXO GROUP LIMITED, priority 2008, published 2011).

What is called IC50 is the concentration that inhibits the measured activity by half.

The structures appear in SMILES notation. Bounds are passed on as bounds.

T1 sequence (P41594 21-1212): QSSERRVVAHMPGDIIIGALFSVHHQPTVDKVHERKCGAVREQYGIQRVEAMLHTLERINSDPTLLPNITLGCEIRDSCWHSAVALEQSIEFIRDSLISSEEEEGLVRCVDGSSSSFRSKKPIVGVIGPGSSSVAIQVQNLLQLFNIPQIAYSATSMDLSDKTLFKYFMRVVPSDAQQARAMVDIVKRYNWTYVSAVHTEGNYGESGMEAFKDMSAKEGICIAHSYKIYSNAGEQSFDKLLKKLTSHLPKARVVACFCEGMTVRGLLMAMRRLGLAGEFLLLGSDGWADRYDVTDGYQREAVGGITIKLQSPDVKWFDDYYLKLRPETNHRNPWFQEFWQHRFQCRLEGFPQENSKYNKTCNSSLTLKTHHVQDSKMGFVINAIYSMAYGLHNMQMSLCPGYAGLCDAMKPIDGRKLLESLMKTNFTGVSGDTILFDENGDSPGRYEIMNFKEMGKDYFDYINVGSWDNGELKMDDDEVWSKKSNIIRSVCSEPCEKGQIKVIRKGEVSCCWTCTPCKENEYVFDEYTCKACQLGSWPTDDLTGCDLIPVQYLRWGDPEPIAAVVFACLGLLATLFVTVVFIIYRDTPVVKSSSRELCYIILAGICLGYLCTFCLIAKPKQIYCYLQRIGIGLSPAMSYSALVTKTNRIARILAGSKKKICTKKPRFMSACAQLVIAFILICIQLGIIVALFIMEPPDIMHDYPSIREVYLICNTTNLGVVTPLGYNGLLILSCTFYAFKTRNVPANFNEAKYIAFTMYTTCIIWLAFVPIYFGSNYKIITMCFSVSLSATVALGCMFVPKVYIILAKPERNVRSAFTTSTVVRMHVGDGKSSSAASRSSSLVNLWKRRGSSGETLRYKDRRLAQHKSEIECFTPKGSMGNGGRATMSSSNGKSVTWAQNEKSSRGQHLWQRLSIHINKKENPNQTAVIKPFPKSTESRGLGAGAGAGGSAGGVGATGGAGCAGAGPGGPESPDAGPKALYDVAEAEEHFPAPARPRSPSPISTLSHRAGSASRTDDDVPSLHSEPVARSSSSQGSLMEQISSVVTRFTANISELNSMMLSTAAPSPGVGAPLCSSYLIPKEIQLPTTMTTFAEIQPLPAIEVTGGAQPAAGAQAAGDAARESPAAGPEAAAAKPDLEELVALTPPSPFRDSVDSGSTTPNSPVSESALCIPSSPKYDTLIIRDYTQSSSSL

The first test concerns the target T1, human mGlu5 recombinant receptor (Homo sapiens, UniProt P41594).
T1 construct: expressed in transfected cells; host or cells: inducible CHO cell line stably expressing Aequorin (Euroscreen FAST); doxycycline-responsive promoter
In words: mGluR5 calcium mobilization in inducible mGluR5 CHO cells (aequorin luminescence, antagonist mode). The test is classed as cell-based. Conditions: Table 2; antagonist activity against EC80 glutamate, inducible CHO cell line expressing human mGlu5 and Aequorin; read-out: IC50 (uM) Ca^++ flux. The text has this:
mGluR5 Calcium Mobilization in Inducible mGluR5 CHO Cells
To functionally measure mGluR5 calcium mobilization in response to agonists or antagonists, an inducible CHO cell line expressing the human mGlu5 recombinant receptor was used. This cell line also stably expressed Aequorin (Euroscreen FAST), a photoprotein that spontaneously couples with coelenterazine h when added exogenously in the cell media. The Aequorin-coelenterzine h complex undergoes a conformational change upon binding of calcium ions which results in the emission of blue light (wavelength 469 nm) that was measured using a Hamamatsu Functional Drug Screening System 6000.
mGluR5 expression was induced by a doxycycline responsive promoter by growing cells to mid-log phase for 18 hours in media without antibiotics and supplemented with doxycycline (600 ng/mL). Cells were detached from the plate by gentle flushing using PBS-EDTA (5 mM EDTA) and centrifuged for collection and resuspended in “assay buffer” (HBSS, 2.1 mM CaCl2, 2 ug/mL glutamate-pyruvate transaminase, 4 mM MEM sodium pyruvate, and 0.1% protease free BSA). Cells were incubated with coelenterazine h (Molecular Probes) at room temperature for 4 hours before testing.
To measure mGluR5 antagonist activity, cell suspensions containing test compound were mixed with EC80 glutamate and emission of light was recorded. Reference and test compounds were tested at several concentrations in duplicate to obtain dose response curves using the Prism GraphPad software (GraphPad Software Inc.). IC50 values were calculated from the dose response curves using the equation:
Y=Bottom+(Top−Bottom)/(1+10̂((LogEC50−X)*HillSlope)).
(Calcium flux is commonly read through the fluorescence of an indicator in the cells.)
Turning to `Cn1nc(C(=O)Nc2cccc(Cl)c2)c2c1-c1cc(F)ccc1OC2` [Example 1, N-(3-Chlorophenyl)-8-fluoro-1-methyl-1,4-dihydrochromeno[4,3-c]pyrazole-3-carboxamide], the concentration for half-maximal inhibition (IC50) was < 1 µM. Turning to `Cn1nc2c(c1C(=O)Nc1cccc(Cl)c1)COc1ccc(F)cc1-2` [Example 2, N-(3-Chlorophenyl)-8-fluoro-2-methyl-2,4-dihydrochromeno[4,3-c]pyrazole-3-carboxamide], the IC50 is < 1 µM. The same measure, in the same setting: the figure for `Cn1nc(C(=O)Nc2cc(Cl)ccn2)c2c1-c1ccccc1OC2` [Example 3, N-(4-Chloropyridin-2-yl)-1-methyl-1,4-dihydrochromeno[4,3-c]pyrazole-3-carboxamide] is 1 to 10 µM; for `Cn1nc(C(=O)Nc2cccc(Cl)c2)c2c1-c1ccccc1OC2(C)C` [Example 4, N-(3-Chlorophenyl)-1,4,4-trimethyl-1,4-dihydrochromeno[4,3-c]pyrazole-3-carboxamide] it is > 10 µM. Regarding `Cn1nc(C(=O)Nc2cccc(Cl)c2)c2c1-c1cc(Cl)ccc1OC2` [Example 5, N-(3-Chlorophenyl)-8-chloro-1-methyl-1,4-dihydrochromeno[4,3-c]pyrazole-3-carboxamide], the half-inhibitory concentration (IC50) is > 10 µM. The same measure, in the same setting: next, `Cc1cccc(NC(=O)c2nn(C)c3c2COc2cc(F)ccc2-3)n1` [Example 6, 7-Fluoro-1-methyl-N-(6-methylpyridin-2-yl)-1,4-dihydrochromeno[4,3-c]pyrazole-3-carboxamide]: > 10 µM; `Cc1cccc(NC(=O)c2n[nH]c3c2COc2ccccc2-3)n1` [Example 7, N-(6-Methylpyridin-2-yl)-1,4-dihydrochromeno[4,3-c]pyrazole-3-carboxamide]: > 10 µM; `Cn1nc(C(=O)Nc2cc(C#N)ccn2)c2c1-c1ccccc1OC2` [Example 8, N-(4-Cyanopyridin-2-yl)-1-methyl-1,4-dihydrochromeno[4,3-c]pyrazole-3-carboxamide]: > 10 µM. For the compound `Cn1nc(C(=O)Nc2ccc3c(c2)OCCO3)c2c1-c1ccccc1OC2` [Example 9, N-(2,3-Dihydrobenzo[b][1,4]dioxin-6-yl)-1-methyl-1,4-dihydrochromeno[4,3-c]pyrazole-3-carboxamide], the IC50 is > 10 µM. On the same count and under the same terms, next, `Cn1nc(C(=O)N2CCOc3ccccc32)c2c1-c1ccccc1OC2` [Example 10, (2H-Benzo[b][1,4]oxazin-4(3H)-yl)(1-methyl-1,4-dihydrochromeno[4,3-c]pyrazol-3-yl)methanone]: > 10 µM; `CCN(Cc1nn(C)c2c1COc1ccccc1-2)C(=O)c1ccc(Br)o1` [Example 11, 5-Bromo-N-ethyl-N-((1-methyl-1,4-dihydrochromeno[4,3-c]pyrazol-3-yl)methyl)furan-2-carboxamide]: > 10 µM. With `Cn1nc(CNc2cccc(Cl)c2)c2c1-c1ccccc1OC2` [Example 12], the IC50 fell in the range of 1 to 10 µM.

Regarding `Cc1cccc(NC(=O)c2nn(C)c3c2CCc2cccnc2-3)n1` [Example 13, 1-Methyl-N-(6-methylpyridin-2-yl)-4,5-dihydro-1H-pyrazolo[4,3-h]quinoline-3-carboxamide], the IC50 is < 1 µM.

With `Cn1nc(C(=O)Nc2cccc(Cl)c2)c2c1-c1ccccc1CC2` [Example 14, N-(3-Chlorophenyl)-1-methyl-4,5-dihydro-1H-benzo[g]indazole-3-carboxamide], the IC50 was < 1 µM. Still for that read-out and setting: next, `Cc1cccc(NC(=O)c2nn(C(C)C)c3c2CCc2cccnc2-3)n1` [Example 15]: > 10 µM; `CCn1nc(C(=O)Nc2cccc(C)n2)c2c1-c1ncccc1CC2` [Example 16, 1-Ethyl-N-(6-methylpyridin-2-yl)-4,5-dihydro-1H-pyrazolo[4,3-h]quinoline-3-carboxamide]: < 1 µM; `Cc1cccc(NC(=O)c2nn(C)c3c2CCc2ccncc2-3)n1` [Example 17, 1-Methyl-N-(6-methylpyridin-2-yl)-4,5-dihydro-1H-pyrazolo[4,3-h]isoquinoline-3-carboxamide]: < 1 µM. Still for that read-out and setting: the figure for `Cc1cccc(NC(=O)c2nn(C)c3c2CCc2ccc(C)nc2-3)n1` [Example 18] is < 1 µM; for `CC(=O)N1Cc2c(C(=O)Nc3cccc(Cl)c3)nn(C)c2-c2ccccc21` [Example 19] it is < 1 µM; for `Cn1nc(C(=O)Nc2cccc(Cl)c2)c2cnc3ccccc3c21` [Example 20, N-(3-Chlorophenyl)-1-methyl-1H-pyrazolo[4,3-c]quinoline-3-carboxamide] it is < 1 µM. The same measure, in the same setting: next, `Cn1nc(C(=O)Nc2cccc(Cl)c2)c2c1-c1ccccc1NC2` [Example 21, N-(3-Chlorophenyl)-1-methyl-4,5-dihydro-1H-pyrazolo[4,3-c]quinoline-3-carboxamide]: < 1 µM; `Cc1cccc(NC(=O)c2nn(C)c3c2CCCc2cccnc2-3)n1` [Example 22, 3-Methyl-N-(6-methylpyridin-2-yl)-3,4,14-triazatricyclo[8.4.0.0̂{2,6}]tetradeca-1(14),2(6),4,10,12-pentaene-5-carboxamide]: < 1 µM; `Cc1cccc(NC(=O)c2c3c(nn2C)-c2ncccc2CCC3)n1` [Example 23, 4-Methyl-N-(6-methylpyridin-2-yl)-3,4,14-triazatricyclo[8.4.0.0̂{2,6}]tetradeca-1(14),2,5,10,12-pentaene-5-carboxamide]: > 10 µM. `Cn1nc2c(c1C1CCCN(C(=O)c3ccc(F)cc3)C1)CCc1ccccc1-2` (stereo not drawn) [Example 24, (4-Fluorophenyl)(3-(2-methyl-4,5-dihydro-2H-benzo[g]indazol-3-yl)piperidin-1-yl)methanone]: the IC50 is > 10 µM. For the compound `Cn1nc(C2CCCN(C(=O)c3ccc(F)cc3)C2)c2c1-c1ccccc1CC2` (stereo not drawn) [Example 25, (4-Fluorophenyl)(3-(1-methyl-4,5-dihydro-1H-benzo[g]indazol-3-yl)piperidin-1-yl)methanone], the IC50 is > 10 µM.

Still in this test, the particulars now being: Table 3; antagonist activity against EC80 glutamate, inducible CHO cell line expressing human mGlu5 and Aequorin; read-out: IC50 (uM) Ca^++ flux.
Regarding `Cn1nc(C(=O)Nc2cccc(C(F)(F)F)c2)c2c1-c1ccccc1OC2` [1-methyl-N-(3-(trifluoromethyl)phenyl)-1,4-dihydrochromeno[4,3-c]pyrazole-3-carboxamide], the 50% inhibitory concentration (IC50) is > 10 µM. On the same count and under the same terms, the figure for `Cn1nc(C(=O)Nc2ccccc2Cl)c2c1-c1ccccc1OC2` [N-(2-chlorophenyl)-1-methyl-1,4-dihydrochromeno[4,3-c]pyrazole-3-carboxamide] is 1 to 10 µM; for `Cn1nc(C(=O)Nc2ccc(F)c(Cl)c2)c2c1-c1ccccc1OC2` [N-(3-chloro-4-fluorophenyl)-1-methyl-1,4-dihydrochromeno[4,3-c]pyrazole-3-carboxamide] it is > 10 µM. Turning to `Cn1nc(C(=O)NCc2cccc(Cl)c2)c2c1-c1ccccc1OC2` [N-(3-chlorobenzyl)-1-methyl-1,4-dihydrochromeno[4,3-c]pyrazole-3-carboxamide], the IC50 is > 10 µM. Consider `Cc1ccc2c(c1)-c1c(c(C(=O)Nc3cccc(Cl)c3)nn1C)CS2` [N-(3-chlorophenyl)-1,8-dimethyl-1,4-dihydrothiochromeno[4,3-c]pyrazole-3-carboxamide], for which the concentration for half-maximal inhibition (IC50) was < 1 µM. For the compound `Cn1nc(C(=O)Nc2cccc(Cl)c2)c2c1-c1ccccc1SC2` [N-(3-chlorophenyl)-1-methyl-1,4-dihydrothiochromeno[4,3-c]pyrazole-3-carboxamide], the IC50 was < 1 µM.

In the case of `Cn1nc(C(=O)Nc2cccc(Cl)c2)c2c1-c1ccsc1CC2` [N-(3-chlorophenyl)-1-methyl-4,5-dihydro-1H-thieno[2,3-g]indazole-3-carboxamide], the IC50 is > 10 µM. Same read-out and setting: next, `O=C(Nc1cccc(Cl)c1)c1noc2c1CSc1ccccc1-2` [N-(3-chlorophenyl)-4H-thiochromeno[3,4-d]isoxazole-3-carboxamide]: < 1 µM; `CN(C(=O)c1nn(C)c2c1COc1ccccc1-2)c1cccc(Cl)c1` [N-(3-chlorophenyl)-N,1-dimethyl-1,4-dihydrochromeno[4,3-c]pyrazole-3-carboxamide]: > 10 µM; `CN(C(=O)c1noc2c1COc1ccccc1-2)c1cccc(Cl)c1` [N-(3-chlorophenyl)-N-methyl-4H-chromeno[3,4-d]isoxazole-3-carboxamide]: > 10 µM. The same measure, in the same setting: next, `COc1cccc(NC(=O)c2n[nH]c3c2COc2ccccc2-3)c1` [N-(3-methoxyphenyl)-1,4-dihydrochromeno[4,3-c]pyrazole-3-carboxamide]: > 10 µM. In the case of `COc1cccc(NC(=O)c2nn(C)c3c2COc2ccccc2-3)c1` [N-(3-methoxyphenyl)-1-methyl-1,4-dihydrochromeno[4,3-c]pyrazole-3-carboxamide], the IC50 was > 10 µM. Same read-out and setting: the figure for `Cn1nc(C(=O)Nc2ccc(Cl)cc2)c2c1-c1ccccc1OC2` [N-(4-chlorophenyl)-1-methyl-1,4-dihydrochromeno[4,3-c]pyrazole-3-carboxamide] is > 10 µM.

Take `O=C(Nc1ccc(Cl)cc1)c1n[nH]c2c1CCc1ccccc1-2` [N-(4-chlorophenyl)-4,5-dihydro-1H-benzo[g]indazole-3-carboxamide]: the IC50 is > 10 µM.
